Experiments:
[1] = tested on: 13 HNSCC and 6 NSCLC cells; experiment: MTT cell viability in conventional 2D culture (TCPs); type: cell-based, human; settings: 25 μg/ml, up to 7 days, MTT assay
Protocol: A panel of 13 HNSCC and 6 NSCLC cells grown in 2D culture conditions using TCPs were treated with 25 μg/ml cixutumumab, and the effect of cixutumumab on growth of cancer cells tested was analyzed by the MTT assay.
The effect of cixutumumab on growth of 13 HNSCC and 6 NSCLC cells was evaluated by the MTT assay, and the results are shown in FIG. 2.
LN686, UMSCC38, and A549m cells were treated with cixutumumab diluted in 1% FBS-containing medium for 3 and 5 days. Cell viability was evaluated by the MTT assay.

[2] = tested on: LN686, H226B, UMSCC38 and A549m xenograft tumors; experiment: Xenograft tumors of drug-resistant and -sensitive cells in nude mice; type: in vivo; settings: intraperitoneal, 25 mg/kg twice a week
Protocol: LN686, UMSCC38, H226B, or A549m cells (1×10^6 cells/mouse in 100 μl of PBS) were subcutaneously injected into nude mice at a single dorsal flank site (6-9 mice per group). For HNSCC patient-derived tumor xenografts, primary human tumor specimens were collected from an untreated patient who underwent lobectomies of squamous carcinoma of the oral cavity. The tumors were cut into small pieces with a size of 2-mm^3 and subcutaneously implanted into the nude mice (one piece per mouse). At 0 day (the time point when tumor size reached to 80 to 100 mm^3) mice were treated with cixutumumab (10 mg/kg, i.p., once or twice a week), Ad-EV (3×10^11 pfu, intratumoral injection, once a week), Ad-CSK (3×10^11 pfu, intratumoral injection, once a week), siCon, siintegrin β3 ([…], i.p., once a week), dasatinib (20 mg/kg, oral gavage, daily), cixutumumab and Ad-CSK, or cixutumumab and dasatinib.
Tumor xenografts were treated with vehicle or cituxumumab (intraperitoneal, 25 mg/kg) twice a week. Data are presented as mean tumor volume ±SD for indicated time or mean tumor weight at the date of euthanasia ±SD (*P<0.05, **P<0.01, ***P<0.001). […] Thus, antitumor activity of cixutumumab was consistent in cells grown in 3D (or 3D-mimicking) conditions in vitro and in those grown in vivo.

[3] = tested on: IGF-1R, EGFR, Src, Akt, mTOR phosphorylation; experiment: Western blot of IGF-1R, EGFR, Src, Akt signaling after cixutumumab; type: cell-based, human
Protocol: Preparation of total cell lysates, Western blot analysis, and immunoprecipitation were performed according to methods described in our previous report (Morgillo et al., 2006).
Total cell lysates were immunoprecipitated with antibodies against integrin β3, integrin β1, or IgG. The precipitates with protein A agarose were resolved by sodium dodecyl sulfate-polyacrylamide gel electrophoresis (SDS-PAGE) and transferred to a polyvinylidene difluoride (PVDF) membrane. Western blot analysis was performed using specific Abs described as follows, and antigen-antibody complexes were visualized using enhanced chemiluminescence plus kits (Amersham Biosciences, Piscataway, N.J.).
The present inventors investigated the mechanisms involved in the resistance to cixutumumab treatment in HNSCC and NSCLC cells. cixutumumab resistant (LN686, FADU, 226B, 226Br, H596, and H460) or -sensitivity (UMSCC38, OSC19, H1299, and A549m) lines grown in TCP, PCP, UAP, or soft agar were untreated or treated with 25 μg/ml of cixutumumab for 6 h, and then were stimulated with IGF-1 for 30 min. Expression of several proteins were analyzed by Western blot analysis.
Cixutumumab-resistant (LN686, FADU, 226B, 226Br, H596, and H460) or -sensitive (UMSCC38, OSC19, H1299, and A549m) cell lines grown in PCP were untreated or treated with 25 μg/ml of cixutumumab for 7 days, and then were stimulated with 10% FBS for 30 min. Expression of several proteins were analyzed by western blot analysis.
Because cross-talk between EGFR and IGF-1R signalings have been proposed as a major mechanism of a resistance to TKIs of IGF-1R and EGFR (Buck et al., 2008; Morgillo et al., 2006), the present inventors next examined whether cixutumumab treatment induces activation of EGFR and Akt phosphorylation. After cixutumumab-resistant (LN686, FADU, 226B, 226Br, H596, and H460) or -sensitive (UMSCC38, OSC19, H1299, and A549m) cell lines grown in PCPs were treated with cixutumumab, 10% FBS was treated for 30 min. Several phosphorylated proteins and actin were analyzed by western blot analysis. In addition, densitometric analysis was performed to quantify the expression of the proteins for comparisons between cixutumumab-treated and control cells treated with vehicle.
The LN686 cells grown in PCP were treated with cixutumumab (25 μg/ml) for indicated times prior to stimulation with 10% FBS (FIGS. 14 and 15) or IGF-1 (100 ng/ml) (FIGS. 16 and 17) in the presence or absence of anti-human IGF-1 neutralizing monoclonal antibody (αIGF-1) (FIGS. 15 and 16) for indicated times (FIG. 16) or for 30 min (FIGS. 14, 15, and 17). Immunoprecipitation with whole proteins or integrin β3 antibodies was performed on the presented proteins, and expression of the proteins was analyzed by western blot analysis.
In addition, LN686 cells grown in PCP were treated with cixutumumab (25 μg/ml) for 7 days in the absence of FBS. The results obtained by analyzing p-IGF-1R (Y1131), IGF-1R, p-Src (Y416), Src, p-EGFR (Y845), p-EGFR (Y1068), EGFR, p-Akt (S473), and Akt using western blot analysis. LN686 cells stimulated with 10% serum for 30 min were included as a control.

cixutumumab: humanized mAb targeting IGF-1R, provided by ImClone Systems
viability of cells grown in 2D culture conditions [1]: did not inhibit
growth and weight of xenograft tumors ([2]; LN686 and H226B xenografts): no significant effects
growth and weight of xenograft tumors ([2]; UMSCC38 and A549 xenografts): significantly decreased
IGF-1-induced IGF-1R and Akt phosphorylation, and total IGF-1R expression ([3]; 25 μg/mL for 6 h, LN686 and OSC19 cells in TCPs, PCPs, UAPs, soft agar): effectively suppressed
phosphorylation of Akt and downstream effectors mTOR, p70S6K, S6 ([3]; LN686 (cixutumumab-resistant)): not to inhibit or to even increase
time IGF-1R remained dephosphorylated ([3]; LN686 in PCP, 25 μg/ml, no change in IGF-1R level): 3 h
levels of p-IGF-1R, p-EGFR (Y845), p-Src (Y416), and p-Akt (S473) ([3]; LN686 in PCP, 30 min pretreatment, 10% FBS stimulation): decreased
phosphorylation of Src, FAK, EGFR (Y845), Akt, mTOR ([3]; LN686 in PCP, one hour treatment, 10% FBS stimulation): rapidly rephosphorylated
phosphorylation of Akt and downstream effectors mTOR, p70S6K, S6 ([3]; OSC19 (cixutumumab-sensitive)): inhibited
EGFR, Src, or Akt phosphorylation ([3]; cixutumumab alone, absence of IGF-1 stimulation, LN686): failed to induce
phosphorylation of EGFR at Src-specific site (Y845) and of Src (Y416) ([3]; cixutumumab-resistant lines in PCPs, 7 days, 10% FBS 30 min): increased
phosphorylation of EGFR at Tyr1068 ([3]; drug-resistant lines in PCPs, 7 days, 10% FBS 30 min): increased
